Legend:
Assay type in all cases: cell-based, human
[1] = system: HMLE-TWIST cells; assay: RNA-seq after two days of chaetocin and two days after removal (Enrichr); conditions: versus DMSO, cells found to have mycoplasma infection
Experimental: Briefly, HMLE-TWIST cells were treated for two days with increasing doses of chaetocin (0.1, 0.15, 0.2, 0.5 uM). The cells were then washed and incubated for an additional 2 days in chaetocin-free media. Cells were collected before chaetocin treatment and at the 2-day and 4-day timepoints. Total RNA was extracted and subjected to deep sequencing. All chaetocin-treated transcriptomes were compared to cells treated with DMSO for 2 and 4 days which served as controls.
Using FACS (see FIGS. 3A-3X), it was shown that mesenchymal, TIC-rich HMLE-TWIST cells treated with increasing doses of chaetocin lose their mesenchymal properties. […] All transcriptomes were compared to the corresponding DMSO-treated controls.
The results for two representative chaetocin concentrations ([…]) are shown. Other concentrations produced a highly similar list of pathways. Only pathways whose enrichment is associated with an adjusted p value of less than 0.05 are indicated. Pathways listed in italicized font are those which have a known role in promoting the formation of the mesenchymal state in published literature. The pathways marked with an asterisk in tables above are those having known roles as tumor suppressors.
The results for two representative chaetocin concentrations ([…]) are shown. Other concentrations produced a highly similar list of pathways. […]

[2] = system: HMLE-TWIST cells; assay: CD44/CD24 FACS analysis after chaetocin pulse and washout
Experimental: Cultured mesenchymal, TIC-rich HMLE-TWIST cells were treated with increasing concentrations of chaetocin for 2 days, washed and then incubated in chaetocin-free media for two days. CD44/CD24 FACS analyses were performed either immediately or two days after chaetocin removal.
CD44/CD24 FACS analyses either were performed either immediately or 6 days after chaetocin removal.
To determine whether a short pulse of the Suv39H1/H2 inhibitor, chaetocin, is sufficient to bring about an epigenetic change, cultured HMLE-TWIST cells (also referred to as ‘HMLE-TWIST TICs’ or ‘TICs’) were exposed to different doses of chaetocin for two days, followed by washout, and replacement with regular media. Cells were tracked for their phenotypic fate (e.g., CD44/CD24 marker expression) for another two or 6 days in chaetocin-free media. In this cell line, high CD44 and low CD24 expression indicate TIC cell populations. Cells that express CD24 are considered non-TICs. […] Next, to determine whether the epigenetic change persists for periods longer than two days, a separate experiment was performed in which HMLE-TWIST cells were treated with chaetocin for two days, followed by FACS analysis of CD24/CD44 expression either immediately after or 6 days after, as schematized in the top panel of FIG. 3M.

[3] = system: 786-0 and HMLE-Snail (E-Snail) cells versus WT7, HMLE, HK-2, NP-1 and BEAS-2B cells; assay: Proliferation assay on normal and cancer cell lines; conditions: 100 nM chaetocin for 1 day
Text: Mesenchymal, TIC-rich, chemotherapy-resistant cell lines used in this experiment are the clear cell renal carcinoma cell line 786-0 and the human mammary epithelial (HMLE) cell line in which the zinc finger protein SNAI1 (SNAIL) is overexpressed, E-SNAIL. The isogenic epithelial, TIC-depleted, chemotherapy sensitive cell lines used as controls are the clear cell renal carcinoma cell line WT7 (modified 786-0 cells) and the human mammary epithelial (HMLE) cell with […].
To test if other mesenchymal, TIC-rich, chemotherapy resistant cell lines of different tissue origin (e.g. kidney) are also sensitive to chaetocin treatment, normal and cancerous breast (control) and renal cells were treated in culture with 100 nM chaetocin for 1 day, after which cell growth was assayed using a proliferation assay (FIG. 1C). The tested cells included a 786-0 clear cell renal cell carcinoma (ccRCC) cell line, which is defective in the Von Hippel-Lindau tumor suppressor (VHL), enriched in TIC, and difficult to eliminate by conventional chemotherapy in patients carrying this mutation. WT7 cell line is a modified 786-0 cell line in which VHL is re-introduced artificially, rendering them epithelial, TIC-depleted and susceptible to chemotherapy. […]

[4] = system: MDA-MB-468 cells; assay: Cleaved caspase 3 apoptosis assay; conditions: chaetocin 0, 400, 800 nM; compared with MDA-MB-231
Text: (§1) FIGS. 1A-1K are a series of figures showing sensitivity of tumor initiating cell (TICs)-rich, chemoresistant breast cancer and clear cell renal cell carcinoma cell lines to chaetocin compared to non-cancerous epithelial or isogenic cancerous epithelial, TIC-deplete, chemosensitive breast cancer and clear cell renal cell carcinoma cell lines. […] The data presented in FIGS. 1A and 1B indicate that at lower doses especially chaetocin specifically induces apoptosis of mesenchymal, TIC-rich, chemotherapy-resistant breast cancer cell lines compared to the epithelial, non-TIC-rich and chemotherapy-responsive cell-line.
(§2) To determine whether constitutive heterochromatin proteins are similarly required for the development of […] in cancer, the efficacy of a heterochromatin inhibitor, which selectively represses the activities of two proteins critical for constitutive heterochromatin formation, namely suppressor of variegation 3-9 homolog 1 (Suv39H1) and suppressor of variegation 3-9 homolog 2 (Suv39H2), was tested in human cells, using 2-D, spheroid and tumorsphere assays. To determine the sensitivity of well-established mesenchymal and epithelial cancer cells to a heterochromatin inhibitor, chaetocin, the degree of apoptotic cell death was measured in two cancer cell lines, MDA-MB-231 and MDA-MB-468. […]

[5] = system: MDA-MB-231 cells; assay: Cleaved caspase 3 apoptosis assay; conditions: chaetocin 0, 100, 200 nM; compared with MDA-MB-468
Text: as §1, §2

CN1C(=O)[C@@]23C[C@]4([C@]56C[C@@]78SS[C@](CO)(C(=O)N7[C@H]5Nc5ccccc56)N(C)C8=O)c5ccccc5N[C@@H]4N2C(=O)[C@@]1(CO)SS3 [chaetocin]
pathways changed after two days of treatment ([1]; 0.1, 0.15, 0.2, 0.5 uM for two days): repression of several mesenchymal pathways and an increase in DNA repair and two important tumor suppressing pathways, p53 and Rb
persistence of transcriptional changes ([1]; 2 days after chaetocin removal): transcriptional changes persist after chaetocin removal
CD44/CD24 phenotype (TIC to non-TIC) ([2]; 0.1, 0.15, 0.2, 0.5 μM for two days, immediately after treatment): converts TICs into non-TICs in a dose dependent manner
persistence of TIC to non-TIC conversion ([2]; two or 6 days in chaetocin-free media): persist for up to six days after chaetocin removal
inhibition of proliferation [3]: selectively inhibits the growth of mesenchymal, TIC-rich, chemotherapy resistant breast and kidney cancer cell lines
apoptosis (cleaved caspase 3) sensitivity [4]: increased sensitivity to chaetocin as compared to MDA-MB-231 cells
apoptosis (cleaved caspase 3) sensitivity [5]: more sensitive to chaetocin compared to the non-TIC, MDA-MB-468 cells
